Assays:
CmACT = CmACT (Cucumis melo, UniProt A0A1S3CAV7); assay: acetyltransferase assay, LC-MS of product; format: biochemical; conditions: 400 μM acetyl-CoA, 400 μM substrate, pH 7.5, 31°C
CsACT = CsACT (Cucumis sativus, UniProt A0A097IYL7); assay: acetyltransferase assay, LC-MS of product; format: biochemical; conditions: 400 μM acetyl-CoA, 400 μM substrate, pH 7.5, 31°C

Q: With CC(C)(O)/C=C/C(=O)[C@](C)(O)[C@H]1[C@H](O)C[C@@]2(C)[C@@H]3CC=C4[C@@H](C[C@H](O)C(=O)C4(C)C)[C@]3(C)C(=O)C[C@]12C [CuD] as the compound, how does the “acetyltransferase assay, LC-MS of product” value (from here on “acetyltransferase assay”) (CmACT; product CuB) read?
A: The value was “able to acetylate the cucurbitacin precursors CuD and CuI”.

Q: What about the “acetyltransferase assay” value (CsACT) of the same compound?
A: Its value is “acylate a wide range of substrates (e.g., CuD, CuI, and deacetyl CuC)”.

Q: With CC(C)(O)/C=C/C(=O)[C@](C)(O)[C@H]1[C@H](O)C[C@@]2(C)[C@@H]3CC=C4[C@@H](C=C(O)C(=O)C4(C)C)[C@]3(C)C(=O)C[C@]12C [CuI] as the compound, how does the “acetyltransferase assay” value (CmACT) read?
A: Its value is “acylate a wide range of substrates (e.g., CuD, CuI, and deacetyl CuC)”.

Q: For CC(C)(O)/C=C/C(=O)[C@](C)(O)[C@H]1[C@H](O)C[C@@]2(C)[C@@H]3CC=C4[C@@H](CC[C@H](O)C4(C)C)[C@]3(CO)C(=O)C[C@]12C [deacetyl CuC], which “acetyltransferase assay” value (CsACT) is on record?
A: Its value is “acylate a wide range of substrates (e.g., CuD, CuI, and deacetyl CuC)”.
